Tests used:
MCF7 = assay: cells; details: Homo sapiens, MCF7, 72 h
Description: Cytotoxicity against human MCF7 cells after 3 days by MTT assay

[1] = Cytotoxicity against human Hep3B cells after 3 days by MTT assay; details: 72 h
MDA-MB-231 = assay: cells; details: Homo sapiens, MDA-MB-231, 72 h
Description: Cytotoxicity against human MDA-MB-231 cells after 3 days by MTT assay

HepG2 = assay: Cytotoxicity against human HepG2 cells after 3 days by MTT assay; details: HepG2, 72 h
A549 = assay: Cytotoxicity against human A549 cells after 3 days by MTT assay; details: A549, 72 h

Row | IC50 (MCF7) [µM] | IC50 (MDA-MB-231) [µM] | Compound | IC50 [1] [µM] | IC50 (HepG2) [µM] | IC50 (A549) [µM]
1 | 3.31 | – | CCCCCCCCCC[C@@H](O)[C@H]1CC[C@H]([C@H](O)CCCCCCCCCCCCCCCCC2=C[C@H](C)OC2=O)O1 | – | – | –
2 | 28.3 | – | CCCCCCCCCCCCCC[C@@H](O)[C@H]1CC[C@H]([C@H](O)CCCCCCCCCCCCC2=C[C@H](C)OC2=O)O1 | – | – | –
3 | 30.7 | – | CCCCCCCCCC[C@@H](O)[C@H]1CC[C@@H]([C@@H](O)CCCCCCCCCCCCCCC2=C[C@H](C)OC2=O)O1 | – | – | –
4 | – | – | CCCCCCCCCC/C=C\CC[C@@H](O)[C@H]1CC[C@H]([C@H](O)CCCCCCCCCCCCC2=C[C@H](C)OC2=O)O1 [BULLATENCIN] | 31.4 | – | –
5 | – | 0.0703 | CC(=O)O[C@H]1C(=O)[C@@]2(C)[C@H]([C@H](OC(=O)c3ccccc3)[C@]3(O)C[C@H](OC(=O)[C@H](O)[C@@H](NC(=O)c4ccccc4)c4ccccc4)C(C)=C1C3(C)C)[C@]1(OC(C)=O)CO[C@@H]1C[C@@H]2O [PACLITAXEL] | 0.13 | 0.0468 | –
6 | 2.83 | 0.63 | CCCCCCC(O)CCC[C@H](O)[C@H]1CC[C@H]([C@H](O)CC[C@@H](O)[C@H](O)CCCCCCCCCCCCC2=C[C@H](C)OC2=O)O1 (stereo not given in full) [SQUADIOLIN A] | 3.52 | 0.0056 | < 0.2
7 | 5.47 | 0.28 | CCCCCCCCCC[C@H](O)[C@@H](O)CC[C@H](O)[C@@H](O)CC[C@@H](O)[C@H]1CC[C@H](CCCCCCCCCC2=C[C@H](C)OC2=O)O1 [SQUADIOLIN B] | 6.98 | 0.011 | 2.75
8 | 3.62 | 14.5 | CCCCCCCCCCCC[C@H](O)[C@@H](O)CCCC[C@@H](O)[C@H]1CC[C@H](CCCCCCCC(O)CC2=C[C@H](C)OC2=O)O1 (stereo not given in full) [SQUADIOLIN C] | – | 3.48 | 8.11
9 | 0.96 | 17 | CCCCCCC(O)C(O)CCCCCC[C@@H](O)[C@H]1CC[C@H]([C@H](O)CCCCCCCCCCCCC2=C[C@H](C)OC2=O)O1 (stereo not given in full) [SQUAFOSACIN B] | 0.72 | 0.71 | 0.66
10 | 26.4 | 18.1 | CCCCCCCCCC[C@@H](O)[C@H]1CC[C@H]([C@H](O)CCCCCC(O)CCCCCCCCC2=C[C@H](C)OC2=O)O1 (stereo not given in full) [SQUAFOSACIN C] | 14 | 18.9 | 21
11 | 29.8 | – | CCCCCCCCCC[C@H](O)[C@H]1CC[C@@H]([C@@H](O)CCCCCCCCCCCCCCCCC2=C[C@H](C)OC2=O)O1 [SQUAFOSACIN G] | – | – | –

Row | Compound | IC50 (MCF7) [µM] | IC50 (MDA-MB-231) [µM] | IC50 [1] [µM] | IC50 (HepG2) [µM] | IC50 (A549) [µM]
12 | CCCCCCCCCCCCC(O)C1CCC(C(O)CCCCCCCCCCCCCCC2=CC(C)OC2=O)O1 (stereo not given) | 8.11 | – | – | – | –
13 | CCCCCCCCCCCC[C@H](O)[C@H]1CC[C@@H]([C@@H](O)CCCCCCCCCCCCC2=C[C@H](C)OC2=O)O1 [SQUAFOSACIN F] | 35.1 | > 36 | – | – | –

Source: ChEMBL document CHEMBL1150280, “Mono-tetrahydrofuran annonaceous acetogenins from Annona squamosa as cytotoxic agents and calcium ion chelators” (J Nat Prod, 2008)
